We go through one compound from patent US5827845A, “Cephalosporin derivative” (priority 1993, dated 1998).

Usually half-life stands for how long it takes for the measured level to halve.

Data set [1] concerns Staphylococcus aureus M133*. Briefly: minimum growth inhibitory concentration, serial dilution method. Type of data set: cell-based. As to conditions: Staphylococcus aureus, MRSA, S. aureus M133, methicillin-resistant (MRSA); sodium salts; 35° C., 18-20 hours; read-out: Minimum growth inhibition concentrations (MIC). As to the method:
(§1) The determination of MIC. was conducted by inoculating the test microorganism to an incubation medium N for sensitive disc (a product of Nissui Seiyaku Co., Japan), effecting the incubation at 35° C. for 18-20 hours and then estimating the growth of the bacteria. The compounds tested were the sodium salts of Compound A to Compound F indicated below:
(§2) For the comparison purpose, the values similarly determined of MIC. ([…]) of ME1206 compound (sodium salt), Cefdinir (sodium salt) (abbreviated as CFDN) and Cefixime (sodium salt) (abbreviated as CFIX) are also shown in Table 1.

Data set [2] relates to Enterococcus faecalis W-73. The description is as above. As to conditions: Enterococcus faecalis, W73, Enterococcus faecalis W-73; sodium salts; 35° C., 18-20 hours; read-out: Minimum growth inhibition concentrations (MIC). Type of data set: cell-based. The procedure:
as §1, §2

The test system of data set [3] is Staphylococcus aureus M126*. Described as above. To be noted: Staphylococcus aureus; S. aureus M126, methicillin-resistant (MRSA); sodium salts; 35° C., 18-20 hours; read-out: Minimum growth inhibition concentrations (MIC). Type of data set: cell-based. As to the method: as §1, §2
Data set [4] concerns Enterobacter cloacae G-0008. The data set is described as above. As to conditions: G0008, sodium salts, 35° C., 18-20 hours, read-out: Minimum growth inhibition concentrations (MIC). Type of data set: cell-based. As to the method: as §1, §2
Data set [5] concerns Staphylococcus aureus 209P JC-1. The description is as above. The format is cell-based. To be noted: Staphylococcus aureus, 209P, S. aureus 209P JC-1; sodium salts; 35° C., 18-20 hours; read-out: Minimum growth inhibition concentrations (MIC). The procedure:
as §1, §2

Data set [6] has as its system Enterococcus hirae ATCC 8043. The description is as above. Type of data set: cell-based. As to conditions: Enterococcus hirae, ATCC8043, Enterococcus hirae ATCC 8043; sodium salts; 35° C., 18-20 hours; read-out: Minimum growth inhibition concentrations (MIC). The procedure:
as §1, §2

For data set [7], the system named is Morganella morganii 1510. Described as above. The format is cell-based. As to conditions: Morganella morganii, 1510, Morganella morganii 1510; sodium salts; 35° C., 18-20 hours; read-out: Minimum growth inhibition concentrations (MIC). The procedure:
as §1, §2

The subject of data set [8] is Escherichia coli GN 206. The data set is described as above. The format is cell-based. To be noted: Escherichia coli, GN206, Escherichia coli GN 206; sodium salts; 35° C., 18-20 hours; read-out: Minimum growth inhibition concentrations (MIC). The procedure: as §1, §2
Data set [9] concerns Serratia marcescens No. 1. Described as above. The format is cell-based. To be noted: sodium salts, 35° C., 18-20 hours, read-out: Minimum growth inhibition concentrations (MIC). As to the method: as §1, §2
Data set [10] is described as follows: blood concentration pharmacokinetics after subcutaneous injection in mice. The format is in vivo, mice (Jcl;ICR strain). The procedure:
The test procedure used was as follows: Thus, to mice of Jcl;ICR strain (4 week-aged, male) each was administered subcutaneously an aqueous solution containing 2.5 mg/ml of a test compound dissolved in distilled water sterilized for injections, in such a way that 0.2 ml of said aqueous solution (corresponding to a dosage of the test compound of 0.5 mg per mouse) was injected to one mouse. At the time-points of 5, 15, 30, 60 and 120 minutes after the administration, the blood samples were collected from the armpit of mouse. The blood samples so collected were each allowed to stand for about 2 hours at room temperature and then centrifuged for 10 minutes in a centrifugal separator to recover the serum. The serum obtained was mixed well with an equal volume of methanol added thereto, and the resulting mixture was centrifuged at 12,000 rpm. for 3 minutes. The supernatant obtained was passed through a filter (Sumplep LCR-13-LH) to obtain the serum sample to be assayed by a high performance liquid chromatography (HPLC). This serum sample was assayed by HPLC to measure quantitatively the concentration of the test compound in the serum.
For each test compound, its half-life value in blood and its AUC (Area under the plasma concentration-time curve),which are the pharmacokinetic parameters, were evaluated according to the method of Gauss-Newton.
For the comparison purpose, the ME1206 compound was also tested in the same manner as above.

Turning to `Nc1nc(C(=NO)C(=O)NC2C(=O)N3C(C(=O)O)=C(C=Cc4scnc4C(F)(F)F)CSC23)cs1` (stereo not drawn) [Compound B, 7-[2-Hydroxyimino-2-(2-aminothiazol-4-yl)acet-amido]-3-[2-(4-trifluoromethylthiazol-5-yl)vinyl]-3-cephem-4-carboxylic acid (syn-isomer, cis-isomer)], the MIC in data set [1] came to 6.25 µg/mL; in [2] it was 12.5 µg/mL; in data set [3], 25 µg/mL; in data set [4] it was 1.56 µg/mL; in data set [5] it was 0.39 µg/mL; in data set [6] it was 6.25 µg/mL. In addition, the MIC in [7], in data set [8] and in data set [9] was 1.56 µg/mL throughout. Besides, the “concentration in blood (in words)” value in [10] (injected subcutaneously, mice) is given as “capable of maintaining a high concentration in blood”. In addition, in [10] (mouse, serum, sc, 0.5 mg, sodium salt, subcutaneous, 0.5 mg per mouse, HPLC of serum), the half-life is 42 min. The AUC in [10] (mouse, serum, sc, 0.5 mg, sodium salt, subcutaneous, 0.5 mg per mouse, HPLC of serum, read-out: AUC (area under the plasma concentration-time curve)) was 149 µg·h/mL.
